Measured values taken from patent US20230203060A1 (GENFLEET THERAPEUTICS (SHANGHAI) INC., priority 2020, published 2023).
Where two headings read alike, the source gives them in different places.

How the values were obtained:
Format in all cases: cell-based, human
[1] = system: KRAS G12C mutant MIA PaCa-2 cells; experiment: Cell proliferation inhibition experiment, 3D spheroid, CellTiter-Glo, MIA PaCa-2; conditions: read-out: MIA-PaCa2 IC50
Summary of the method: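 200 MIA PaCa-2 cells/well grown overnight as 3D spheroids, then exposed to 3.16-fold compound dilutions (0.1% DMSO final) for 5 days. Viability read by CellTiter-Glo luminescence; inhibition calculated against DMSO and medium-only controls, and IC50 fitted by four-parameter model.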

[2] = system: KRAS G12C mutant NCI-H358 cells; experiment: Cell proliferation inhibition experiment, 3D spheroid, CellTiter-Glo, NCI-H358; conditions: read-out: H358 IC50
Summary of the method: (§1)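 Spheroids grown overnight from 800 H358 or 400 A549 cells were treated for 5 days with serially diluted compound (3.16-fold, 0.1% DMSO, 2% FBS). ATP-based luminescence gave IC50.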

[3] = system: A549 cells (KRAS G12S mutant); experiment: Cell proliferation inhibition experiment, 3D spheroid, CellTiter-Glo, A549; conditions: read-out: A549 IC50
Summary of the method: as §1

[4] = Homo sapiens, MIA PaCa-2, 120 h, 3D cell model in 384-well spheroid plate, 5 days, CellTiter-Glo
[5] = Homo sapiens, NCI-H358, 120 h, NCI-H358 (KRAS G12C mutant) 3D spheroid, 5 days with compound, CellTiter-Glo
[6] = Homo sapiens, A549, 120 h, A549 (KRAS G12S mutant) 3D spheroid, 5 days with compound, CellTiter-Glo
[7] = 3D cell model in 384-well spheroid plate, 5 days, CellTiter-Glo
[8] = NCI-H358 (KRAS G12C mutant) 3D spheroid, 5 days with compound, CellTiter-Glo
[9] = A549 (KRAS G12S mutant) 3D spheroid, 5 days with compound, CellTiter-Glo

Row | Structure (SMILES) | IC50 [1, 4] | IC50 [2, 5] | IC50 [3, 6] | other results
1 | C=CC(=O)N1CCN2C(=O)c3c(N4CCN(C)[C@H](C)C4)nc(-c4c(O)cccc4F)c(Cl)c3OC[C@H]2C1 [Z235, (6aR)-8-acryloyl-4-chloro-1-((R)-3,4-dimethylpiperazin-1-yl)-3-(2-fluoro-6-hydroxyphenyl)-6,6a,7,8,9,10-hexahydro-12H-pyrazino[2,1-c]pyrido[3,4-f][1,4]oxazepin-12-one] | 22.8 nM | 21 nM | 9480 nM | –
2 | C=CC(=O)N1CCN2C(=O)c3c(N4CCN(CC)C[C@@H]4C)nc(-c4c(O)cccc4F)c(Cl)c3OC[C@H]2C1 [Z236] | – | – | – | IC50 ([1]; Homo sapiens, MIA PaCa-2, 120 h): 7.9 nM; IC50 ([2]; Homo sapiens, NCI-H358, 120 h): 5.8 nM; IC50 ([3]; Homo sapiens, A549, 120 h): 9580 nM
3 | C=CC(=O)N1CCN2C(=O)c3c(N4CCN(CCO)C[C@@H]4C)nc(-c4c(O)cccc4F)c(Cl)c3OC[C@H]2C1 [Z257, (6aR)-8-acryloyl-4-chloro-3-(2-fluoro-6-hydroxyphenyl)-1-((S)-4-(2-hydroxyethyl)-2-methylpiperazin-1-yl)-6,6a,7 ,8,9,10-hexahydro-12H-pyrazino[2,1-c]pyrido[3,4-f][1,4]oxazepin-12-one] | 11.3 nM | 10.2 nM | > 30000 nM | –
4 | C=CC(=O)N1CCN2C(=O)c3c(N4CCN(C)C(C)(C)C4)nc(-c4c(O)cccc4F)c(Cl)c3OC[C@H]2C1 [Z261, (6aR)-8-acryloyl-4-chloro-3-(2-fluoro-6-hydroxyphenyl)-1-(3,3,4-trimethylpiperazin-1-yl)-6,6a,7,8,9,10-hexahydro-12H-pyrazino[2,1-c]pyrido[3,4-f][1,4]oxazepin-12-one] | 10.6 nM | 6.6 nM | 8890 nM | –
5 | C=CC(=O)N1CCN2C(=O)c3c(N4CCN(C)C(C)C4C)nc(-c4c(O)cccc4F)c(Cl)c3OC[C@H]2C1 (stereo partly drawn) [Z308a, (6aR)-8-acryloyl-4-chloro-3-(2-fluoro-6-hydroxyphenyl)-1-(2,3,4-trimethylpiperazin-1-yl)-6,6a,7,8,9,10-hexahydro-12H-pyrazino[2,1-c]pyrido[3,4-f][1,4]oxazepin-12-one] | – | – | – | IC50 [1, 7]: 1.7 nM; IC50 [2, 8]: 4.1 nM; IC50 [3, 9]: 7100 nM
6 | C=CC(=O)N1CCN2C(=O)c3c(C4NCCN5C(=O)CCC45C)nc(-c4c(O)cccc4F)c(Cl)c3OC[C@H]2C1 (stereo partly drawn) [Z337, (6aR)-8-acryloyl-4-chloro-3-(2-fluoro-6-hydroxyphenyl)-1-(8a-methylhexahydropyrrolo[1,2-a]pyrazin-6 (2H)-one-1-yl)-6,6a,7,8,9,10-hexahydro-12H-pyrazino[2,1-c]pyrido[3,4-f][1,4]oxazepin-12-one] | – | – | – | IC50 [1, 7]: 16 nM; IC50 [2, 8]: 15 nM; IC50 [3, 9]: > 30000 nM
7 | C=CC(=O)N1CCN2C(=O)c3c(N4CC(N(C)CC(F)F)CC4(C)C)nc(-c4ccccc4F)c(Cl)c3OC[C@H]2C1 (stereo partly drawn) [Z659] | – | – | – | IC50 [1, 7]: 9.3 nM; IC50 [2, 8]: 1.8 nM; IC50 [3, 9]: 5460 nM

Continued, in another order:

Row | IC50 [1, 4] | IC50 [2, 5] | IC50 [3, 6] | Structure (SMILES) | other results
8 | 34 nM | 22 nM | > 1000 nM | C=CC(=O)N1CCN2C(=O)c3c(N4CCOC5CC54)nc(-c4c(O)cccc4F)c(Cl)c3OC[C@H]2C1 (stereo partly drawn) [Z76, (6aR)-8-acryloyl-4-chloro-1-(2-oxa-5-azabicyclo[4.1.0]heptan-5-yl)-3-(2-fluoro-6-hydroxyphenyl)-6,6a,7,8,9,10-hexahydro-12H-pyrazino[2,1-c]pyrido[3,4-f][1,4]oxazepin-12-one] | –
9 | 4.5 nM | 3 nM | 20100 nM | C=CC(=O)N1CCN2C(=O)c3c(N4CC(=O)N(C)CC4C)nc(-c4c(O)cccc4F)c(Cl)c3OC[C@H]2C1 (stereo partly drawn) [Z221, (6aR)-8-acryloyl-4-chloro-1-(2,4-dimethyl-5-oxopiperazin-1-yl)-3-(2-fluoro-6-hydroxyphenyl)-6,6a,7,8,9,10-hexahydro-12H-pyrazino[2,1-c]pyrido[3,4-f][1,4]oxazepin-12-one] | –
10 | 10.8 nM | 5 nM | 13900 nM | C=CC(=O)N1CCN2C(=O)c3c(N4CC(O)CC4(C)C)nc(-c4c(O)cccc4F)c(F)c3OC[C@H]2C1 (stereo partly drawn) [Z256, (6aR)-8-acryloyl-4-fluoro-3-(2-fluoro-6-hydroxyphenyl)-1-(4-hydroxy-2,2-dimethylpyrrolidin-1-yl)-6,6a,7,8,9,10-hexahydro-12H-pyrazino[2,1-c]pyrido[3,4-f][1,4]oxazepin-12-one] | –
11 | 4.4 nM | 5 nM | 27800 nM | C=CC(=O)N1CCN2C(=O)c3c(N4C[C@@H](O)C[C@@H]4C)nc(-c4c(O)cccc4F)c(Cl)c3OC[C@H]2C1 [Z260, (6aR)-8-acryloyl-4-chloro-3-(2-fluoro-6-hydroxyphenyl)-1-((2S,4S)-4-hydroxy-2-methylpyrrolidin-1-yl)-6,6a,7,8,9,10-hexahydro-12H-pyrazino[2,1-c]pyrido[3,4-f][1,4]oxazepin-12-one] | –
